Molecular target: T1, cytochrome c oxidase (CcO) purified from heart mitochondria (Bos taurus, UniProt P00396+P07471+P68530)
T1 construct: Cytochrome c oxidase was purified from the heart mitochondria of Bos taurus; from tissue; host or cells: bovine heart mitochondria
Assay: Cytochrome oxidase activity of solubilized mitochondrial CcO (oxygen uptake)
Format: biochemical
Details: solubilized bovine heart CcO 20 nM; oxygen uptake, Clark electrode, 25 °C; BM 50 mM Hepes/Tris pH 7.6, 50 mM KCl, 1 mM (0.05%) DM; 5 mM ascorbate, 0.1 mM TMPD, 10 μM cytochrome c; fit by Equation (1); read-out: Inhibition of CcO, Solubilized, Ki(app)

In the case of Ac-STKLWEMLVELGNMDKAVKLWRKLSR-NH2 [A4], the Ki is reported as 0.0223 mM.

Reference: PMC9961948, “Interaction of Amphipathic Peptide from Influenza Virus M1 Protein with Mitochondrial Cytochrome Oxidase” (International Journal of Molecular Sciences, 2023)
